Laboratory results taken from ChEMBL document CHEMBL1139666, “Discovery and synthesis of a novel series of quinoline-based thrombin receptor (PAR-1) antagonists” (Bioorg Med Chem Lett, 2006).
The source made the active and inactive calls. The rule behind the calls is not given here.

Target: T1, Proteinase-activated receptor 1 (Homo sapiens, UniProt P25116)
T1 sequence (P25116 whole entry): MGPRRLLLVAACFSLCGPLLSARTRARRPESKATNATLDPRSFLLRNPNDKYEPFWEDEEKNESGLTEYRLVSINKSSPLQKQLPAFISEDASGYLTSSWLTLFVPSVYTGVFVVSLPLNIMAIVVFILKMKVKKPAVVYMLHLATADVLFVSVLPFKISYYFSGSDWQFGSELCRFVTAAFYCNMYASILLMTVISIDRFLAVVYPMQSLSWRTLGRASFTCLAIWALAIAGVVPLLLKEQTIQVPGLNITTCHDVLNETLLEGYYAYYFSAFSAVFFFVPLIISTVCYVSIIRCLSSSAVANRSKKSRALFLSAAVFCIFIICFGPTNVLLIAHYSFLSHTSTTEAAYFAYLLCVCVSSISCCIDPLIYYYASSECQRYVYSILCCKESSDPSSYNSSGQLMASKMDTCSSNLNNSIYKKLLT
Assay: Displacement of [3H]haTRAP from PAR1 in human platelet membrane
Type: cell membranes
Conditions: not given

Row | SMILES | IC50
1 | COc1ccc2nc(/C=C/[C@H]3[C@@H]4CCCC[C@H]4C[C@H]4C(=O)O[C@H](C)[C@@H]34)ccc2c1Cl (racemic) | 800 nM
2 | CCC(=O)Nc1ccc2nc(/C=C/[C@H]3[C@@H]4CCCC[C@H]4C[C@H]4C(=O)O[C@H](C)[C@@H]34)ccc2c1 | 68 nM
3 | C[C@H]1OC(=O)[C@@H]2C[C@@H]3CCCC[C@H]3[C@H](/C=C/c3ccc4cc(OCCNC(=O)OC(C)(C)C)ccc4n3)[C@H]12 (racemic) | 275 nM
4 | C[C@H]1OC(=O)[C@@H]2C[C@@H]3CCCC[C@H]3[C@H](/C=C/c3ccc4cc(O)ccc4n3)[C@H]12 | 6.3 nM
5 | C[C@H]1OC(=O)[C@@H]2C[C@@H]3CCCC[C@H]3[C@H](/C=C/c3ccc4cc(OC(C)(C)C(N)=O)ccc4n3)[C@H]12 | 800 nM
6 | C[C@H]1OC(=O)[C@@H]2C[C@@H]3CCCC[C@H]3[C@H](/C=C/c3ccc4cc(OCC(=O)N5CCOCC5)ccc4n3)[C@H]12 | 500 nM
7 | C[C@H]1OC(=O)[C@@H]2C[C@@H]3CCCC[C@H]3[C@H](/C=C/c3ccc4cc(OC(C)(C)C(=O)Nc5ccccc5)ccc4n3)[C@H]12 | 500 nM
8 | C[C@H]1OC(=O)[C@@H]2C[C@@H]3CCCC[C@H]3[C@H](/C=C/c3ccc4cc(OCC(=O)Nc5ccccc5)ccc4n3)[C@H]12 | 25 nM
9 | COc1ccc2nc(/C=C/[C@H]3[C@@H]4CCCC[C@H]4C[C@H]4C(=O)O[C@H](C)[C@@H]34)ccc2c1OC | 50 nM
10 | C[C@H]1OC(=O)[C@@H]2C[C@@H]3CCCC[C@H]3[C@H](/C=C/c3ccc4cc(-c5ccsc5)ccc4n3)[C@H]12 | 50 nM
11 | Cc1cccc2ccc(/C=C/[C@H]3[C@@H]4CCCC[C@H]4C[C@H]4C(=O)O[C@H](C)[C@@H]34)nc12 (racemic) | 390 nM
12 | C[C@H]1OC(=O)[C@@H]2C[C@@H]3CCCC[C@H]3[C@H](/C=C/c3ccc4cc(Cl)ccc4n3)[C@H]12 (racemic) | 155 nM
13 | C[C@H]1OC(=O)[C@@H]2C[C@@H]3CCCC[C@H]3[C@H](/C=C/c3ccc4cc(OCC(N)=O)ccc4n3)[C@H]12 | 1000 nM

Results, then the compound that gave them:

Row | IC50 | SMILES
14 | 30 nM | C[C@H]1OC(=O)[C@@H]2C[C@@H]3CCCC[C@H]3[C@H](/C=C/c3ccc4cc(N)ccc4n3)[C@H]12
15 | 29 nM | C[C@H]1OC(=O)[C@@H]2C[C@@H]3CCCC[C@H]3[C@H](/C=C/c3ccc4cc(OCC(=O)O)ccc4n3)[C@H]12
16 | 100 nM | CC(=O)Nc1ccc2nc(/C=C/[C@H]3[C@@H]4CCCC[C@H]4C[C@H]4C(=O)O[C@H](C)[C@@H]34)ccc2c1
17 | 290 nM | C[C@H]1OC(=O)[C@@H]2C[C@@H]3CCCC[C@H]3[C@H](/C=C/c3ccc4cc(OCC(=O)NC5CC5)ccc4n3)[C@H]12
18 | 730 nM | C[C@H]1OC(=O)[C@@H]2C[C@@H]3CCCC[C@H]3[C@H](/C=C/c3ccc4cc(F)ccc4n3)[C@H]12 (racemic)
19 | 300 nM | C[C@H]1OC(=O)[C@@H]2C[C@@H]3CCCC[C@H]3[C@H](/C=C/c3ccc4cc(-c5cccs5)ccc4n3)[C@H]12
20 | 2150 nM | C[C@H]1OC(=O)[C@@H]2C[C@@H]3CCCC[C@H]3[C@H](/C=C/c3ccc4cc(NC(=O)C(C)(C)C)ccc4n3)[C@H]12
21 | 700 nM | COc1cccc2ccc(/C=C/[C@H]3[C@@H]4CCCC[C@H]4C[C@H]4C(=O)O[C@H](C)[C@@H]34)nc12 (racemic)
22 | 1250 nM | C[C@H]1OC(=O)[C@@H]2C[C@@H]3CCCC[C@H]3[C@H](/C=C/c3ccc4cc(OCc5ccccc5)ccc4n3)[C@H]12
23 | 300 nM | C[C@H]1OC(=O)[C@@H]2C[C@@H]3CCCC[C@H]3[C@H](/C=C/c3ccc4cc(-c5cccc(C(F)(F)F)c5)ccc4n3)[C@H]12
24 | 125 nM | CCOc1ccc2nc(/C=C/[C@H]3[C@@H]4CCCC[C@H]4C[C@H]4C(=O)O[C@H](C)[C@@H]34)ccc2c1 (racemic)
25 | 150 nM | Cc1ccc2ccc(/C=C/[C@H]3[C@@H]4CCCC[C@H]4C[C@H]4C(=O)O[C@H](C)[C@@H]34)nc2c1 (racemic)
26 | 219 nM | C[C@H]1OC(=O)[C@@H]2C[C@@H]3CCCC[C@H]3[C@H](/C=C/c3ccc4cc(NC(=O)c5ccccc5)ccc4n3)[C@H]12
27 | 28 nM | CCCC(=O)Nc1ccc2nc(/C=C/[C@H]3[C@@H]4CCCC[C@H]4C[C@H]4C(=O)O[C@H](C)[C@@H]34)ccc2c1

Target: T1, Proteinase-activated receptor 1
Assay: Displacement of [3H]haTRAP from PAR1 in human platelet membrane at […]
Type: cell membranes
Conditions: not given

Row | IC50 | SMILES
28 | Not Active | COc1cc(/C=C/[C@H]2[C@@H]3CCCC[C@H]3C[C@H]3C(=O)O[C@H](C)[C@@H]23)nc2ccccc12 (racemic)
29 | Not Active | C[C@H]1OC(=O)[C@@H]2C[C@@H]3CCCC[C@H]3[C@H](/C=C/c3ccc4cc(OC(F)(F)F)ccc4n3)[C@H]12
30 | Not Active | C[C@H]1OC(=O)[C@@H]2C[C@@H]3CCCC[C@H]3[C@H](/C=C/c3ccc4cc(OCCN)ccc4n3)[C@H]12 (racemic)
31 | Not Active | C[C@H]1OC(=O)[C@@H]2C[C@@H]3CCCC[C@H]3[C@H](/C=C/c3cc(OCc4ccccc4)c4ccccc4n3)[C@H]12 (racemic)

System: Cynomolgus monkey
Assay: Inhibition of platelet aggregation in cynomolgus monkey 2 hrs post dose iv
Type: functional, organism-based
Conditions: Macaca fascicularis

Row | SMILES | inhibition
32 | C[C@H]1OC(=O)[C@@H]2C[C@@H]3CCCC[C@H]3[C@H](/C=C/c3ccc4cc(OCC(=O)O)ccc4n3)[C@H]12 | Active

System: Cynomolgus monkey
Assay: Inhibition of platelet aggregation in orally dosed cynomolgus monkey
Type: functional, organism-based
Conditions: Macaca fascicularis

Row | SMILES | inhibition
33 | C[C@H]1OC(=O)[C@@H]2C[C@@H]3CCCC[C@H]3[C@H](/C=C/c3ccc4cc(OCC(=O)O)ccc4n3)[C@H]12 | inactive

System: not listed separately
Assay: AUC(0-4h) in cynomolgus monkey at 10 mg/kg
Type: ADME, organism-based, Macaca fascicularis
Design: time < 5 hr, dose 10 mg/kg
Conditions: plasma

Row | AUC(0-t) at 5 h | SMILES
34 | 17 ng·h/mL | C[C@H]1OC(=O)[C@@H]2C[C@@H]3CCCC[C@H]3[C@H](/C=C/c3ccc4cc(OCC(=O)O)ccc4n3)[C@H]12
35 | 826 ng·h/mL | C[C@H]1OC(=O)[C@@H]2C[C@@H]3CCCC[C@H]3[C@H](/C=C/c3ccc4cc(O)ccc4n3)[C@H]12
